Experimental findings from ChEMBL document CHEMBL1136193, “Identification of a new chemical class of potent angiogenesis inhibitors based on conformational considerations and database searching” (Bioorg Med Chem Lett, 2003) are described below.

The target of experiment [1] is Vascular endothelial growth factor receptor 2 (Homo sapiens, UniProt P35968). The experiment in a line: Inhibition of Vascular endothelial growth factor receptor 2.
In experiment [2] the target is Vascular endothelial growth factor receptor 1 (Homo sapiens, UniProt P17948). The experiment in a line: Inhibition of vascular endothelial growth factor receptor 1.
The target of experiment [3] is Mast/stem cell growth factor receptor Kit (Homo sapiens, UniProt P10721). The experiment in a line: Inhibition of Proto-oncogene tyrosine-protein kinase Kit.
Experiment [4] has as its target Cyclin-dependent kinase 1 (Homo sapiens, UniProt P06493). The experiment in a line: Inhibition of Cyclin-dependent kinase 1.
The target in experiment [5] is cAMP-dependent protein kinase (PKA) (Homo sapiens, UniProt P22694+P17612+P22612). Nature of the experiment: Inhibition of Protein kinase A. Format: protein assay.
In experiment [6] the target is Insulin-like growth factor 1 receptor (Homo sapiens, UniProt P08069). The experiment in a line: Inhibition of Insulin-like growth factor I receptor.
In experiment [7] the target is Hepatocyte growth factor receptor (Homo sapiens, UniProt P08581). Nature of the experiment: Inhibition of Met proto-oncogene tyrosine kinase.
Chain of Hepatocyte growth factor receptor (P08581 whole entry): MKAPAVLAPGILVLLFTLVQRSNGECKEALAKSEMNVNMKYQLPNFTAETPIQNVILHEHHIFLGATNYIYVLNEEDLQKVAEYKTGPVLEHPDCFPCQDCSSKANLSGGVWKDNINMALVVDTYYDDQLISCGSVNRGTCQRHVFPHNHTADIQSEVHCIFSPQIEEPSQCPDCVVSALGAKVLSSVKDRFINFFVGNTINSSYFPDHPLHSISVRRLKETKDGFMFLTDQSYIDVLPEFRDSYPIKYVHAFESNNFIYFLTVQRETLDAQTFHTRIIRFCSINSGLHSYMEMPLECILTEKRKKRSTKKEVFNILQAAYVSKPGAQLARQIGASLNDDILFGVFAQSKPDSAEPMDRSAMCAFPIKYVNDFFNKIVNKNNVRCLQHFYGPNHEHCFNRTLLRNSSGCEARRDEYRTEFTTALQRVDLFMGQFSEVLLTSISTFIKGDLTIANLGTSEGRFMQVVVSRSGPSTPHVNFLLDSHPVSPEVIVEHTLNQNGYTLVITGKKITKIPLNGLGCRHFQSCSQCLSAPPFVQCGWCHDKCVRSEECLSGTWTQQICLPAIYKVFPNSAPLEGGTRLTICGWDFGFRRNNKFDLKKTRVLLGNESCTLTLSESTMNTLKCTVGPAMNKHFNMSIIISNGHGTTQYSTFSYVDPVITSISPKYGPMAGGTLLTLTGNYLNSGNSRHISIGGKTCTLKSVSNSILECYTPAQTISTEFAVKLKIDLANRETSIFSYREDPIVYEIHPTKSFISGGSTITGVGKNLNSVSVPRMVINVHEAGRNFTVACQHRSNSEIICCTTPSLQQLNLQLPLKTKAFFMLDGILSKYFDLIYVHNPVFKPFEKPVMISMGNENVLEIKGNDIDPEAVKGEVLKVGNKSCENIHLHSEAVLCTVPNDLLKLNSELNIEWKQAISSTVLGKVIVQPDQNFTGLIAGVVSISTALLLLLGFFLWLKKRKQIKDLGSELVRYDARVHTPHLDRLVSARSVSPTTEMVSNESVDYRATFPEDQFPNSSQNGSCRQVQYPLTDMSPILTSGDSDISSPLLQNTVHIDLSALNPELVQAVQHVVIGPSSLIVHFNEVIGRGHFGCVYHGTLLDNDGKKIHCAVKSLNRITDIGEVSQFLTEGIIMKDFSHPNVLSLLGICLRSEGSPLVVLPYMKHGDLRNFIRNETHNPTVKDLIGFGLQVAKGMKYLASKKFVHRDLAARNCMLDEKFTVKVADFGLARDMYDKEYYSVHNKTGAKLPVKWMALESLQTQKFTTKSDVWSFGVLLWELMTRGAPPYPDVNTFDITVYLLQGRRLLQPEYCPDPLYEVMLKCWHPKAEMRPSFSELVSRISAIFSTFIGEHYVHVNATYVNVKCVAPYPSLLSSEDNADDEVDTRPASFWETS

Chain of Vascular endothelial growth factor receptor 2 (P35968 whole entry): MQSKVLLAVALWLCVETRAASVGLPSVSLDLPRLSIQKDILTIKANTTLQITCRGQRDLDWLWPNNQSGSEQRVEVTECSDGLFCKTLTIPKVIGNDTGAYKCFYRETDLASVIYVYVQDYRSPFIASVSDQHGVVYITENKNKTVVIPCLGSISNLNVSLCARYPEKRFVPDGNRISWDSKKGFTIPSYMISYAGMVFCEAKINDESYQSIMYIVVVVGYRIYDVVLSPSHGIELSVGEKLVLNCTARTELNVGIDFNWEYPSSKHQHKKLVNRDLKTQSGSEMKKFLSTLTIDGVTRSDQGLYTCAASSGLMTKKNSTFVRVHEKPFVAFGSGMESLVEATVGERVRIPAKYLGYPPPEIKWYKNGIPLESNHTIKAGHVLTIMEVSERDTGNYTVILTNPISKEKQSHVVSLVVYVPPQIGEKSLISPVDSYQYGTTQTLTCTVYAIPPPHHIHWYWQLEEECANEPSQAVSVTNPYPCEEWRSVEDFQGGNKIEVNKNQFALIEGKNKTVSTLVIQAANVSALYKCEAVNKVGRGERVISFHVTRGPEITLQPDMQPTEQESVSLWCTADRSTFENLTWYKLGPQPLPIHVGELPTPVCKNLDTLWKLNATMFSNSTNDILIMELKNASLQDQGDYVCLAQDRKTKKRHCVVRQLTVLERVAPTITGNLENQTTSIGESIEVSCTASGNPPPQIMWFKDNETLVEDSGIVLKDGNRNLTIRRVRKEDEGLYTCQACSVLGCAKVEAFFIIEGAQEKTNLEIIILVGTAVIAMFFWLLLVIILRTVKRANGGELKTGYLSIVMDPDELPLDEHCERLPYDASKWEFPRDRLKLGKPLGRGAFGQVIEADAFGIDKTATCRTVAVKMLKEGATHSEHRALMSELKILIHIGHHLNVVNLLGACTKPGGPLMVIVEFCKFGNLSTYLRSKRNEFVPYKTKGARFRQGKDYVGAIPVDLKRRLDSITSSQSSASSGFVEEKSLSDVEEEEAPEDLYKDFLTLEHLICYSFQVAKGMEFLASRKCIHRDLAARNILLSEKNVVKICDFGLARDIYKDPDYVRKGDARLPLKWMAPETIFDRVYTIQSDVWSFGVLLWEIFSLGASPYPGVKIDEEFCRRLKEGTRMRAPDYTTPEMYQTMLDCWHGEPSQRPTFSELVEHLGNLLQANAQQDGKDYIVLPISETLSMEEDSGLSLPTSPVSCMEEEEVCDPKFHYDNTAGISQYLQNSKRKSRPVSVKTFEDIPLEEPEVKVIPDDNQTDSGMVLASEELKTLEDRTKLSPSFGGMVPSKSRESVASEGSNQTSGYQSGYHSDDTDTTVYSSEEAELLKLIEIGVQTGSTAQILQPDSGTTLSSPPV
Chain of Mast/stem cell growth factor receptor Kit (P10721 whole entry): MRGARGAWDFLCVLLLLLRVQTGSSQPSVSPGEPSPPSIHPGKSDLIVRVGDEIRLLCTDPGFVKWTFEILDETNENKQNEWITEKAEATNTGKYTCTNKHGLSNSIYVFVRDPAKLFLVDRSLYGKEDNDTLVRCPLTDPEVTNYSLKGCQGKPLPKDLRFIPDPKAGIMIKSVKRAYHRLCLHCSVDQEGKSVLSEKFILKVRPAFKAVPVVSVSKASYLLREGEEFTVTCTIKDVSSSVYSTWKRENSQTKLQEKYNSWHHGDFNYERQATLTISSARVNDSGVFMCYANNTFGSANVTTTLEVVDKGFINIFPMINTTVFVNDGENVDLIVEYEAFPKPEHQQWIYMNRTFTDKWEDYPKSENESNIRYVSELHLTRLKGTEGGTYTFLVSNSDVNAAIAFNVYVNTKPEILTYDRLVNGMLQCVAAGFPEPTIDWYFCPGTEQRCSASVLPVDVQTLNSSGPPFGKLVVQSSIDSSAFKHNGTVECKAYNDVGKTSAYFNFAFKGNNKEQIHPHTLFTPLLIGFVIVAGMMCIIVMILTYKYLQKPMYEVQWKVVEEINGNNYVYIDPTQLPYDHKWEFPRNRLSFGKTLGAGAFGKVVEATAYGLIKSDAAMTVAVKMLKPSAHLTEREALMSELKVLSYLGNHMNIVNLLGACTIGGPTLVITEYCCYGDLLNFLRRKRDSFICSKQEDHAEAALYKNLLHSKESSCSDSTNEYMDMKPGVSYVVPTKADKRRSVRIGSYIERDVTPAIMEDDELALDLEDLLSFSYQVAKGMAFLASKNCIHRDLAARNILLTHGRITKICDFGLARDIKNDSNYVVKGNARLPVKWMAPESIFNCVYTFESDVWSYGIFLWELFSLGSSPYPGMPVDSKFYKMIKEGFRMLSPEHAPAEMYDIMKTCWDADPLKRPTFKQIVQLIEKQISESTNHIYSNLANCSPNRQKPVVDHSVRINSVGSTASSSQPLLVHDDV
Chain of Cyclin-dependent kinase 1 (P06493 whole entry): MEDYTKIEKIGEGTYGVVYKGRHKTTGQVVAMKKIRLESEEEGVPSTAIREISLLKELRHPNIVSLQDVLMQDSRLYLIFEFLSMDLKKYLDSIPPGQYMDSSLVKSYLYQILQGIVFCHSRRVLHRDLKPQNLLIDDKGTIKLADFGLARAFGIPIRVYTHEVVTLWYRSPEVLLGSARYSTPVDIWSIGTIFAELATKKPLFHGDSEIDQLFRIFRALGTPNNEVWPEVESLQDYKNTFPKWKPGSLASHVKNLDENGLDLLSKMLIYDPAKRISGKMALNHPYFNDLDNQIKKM

For orientation: IC50 means the concentration needed to halve the response being measured. Lower therefore signals greater potency. For `O=C(Nc1ccccc1F)c1ccccc1NCc1ccc(F)cc1`, the IC50 is 3.7 µM in experiment [1] and 23 µM in experiment [2].

Turning to `O=C(Nc1ccc(Cl)cc1)c1ccccc1NCc1ccncc1`, the IC50 was 0.24 µM in experiment [3]; more than 10 µM in experiment [4]; more than 10 µM in experiment [5]; more than 10 µM in experiment [6]; 0.02 µM in experiment [1]; more than 10 µM in experiment [7].
